This is an account of results in ChEMBL document CHEMBL2390939, “Synthesis and in vitro cytotoxicity of andrographolide-19-oic acid analogues as anti-cancer agents” (Bioorg Med Chem Lett, 2013).

Molecules are shown by their SMILES. Bounds are passed on as bounds.

In experiment [1] the test system is HCT-116. Kind of experiment: Cytotoxicity against human HCT116 cells assessed as growth inhibition after 72 hrs by MTS assay. The conditions noted are these: HCT-116, 72 h. It is filed as functional, cell-based.
Experiment [2] deals with MCF7. Briefly: Cytotoxicity against human MCF7 cells assessed as growth inhibition after 72 hrs by MTS assay. It is filed as functional, cell-based. The conditions noted are these: MCF7, 72 h.
The subject of experiment [3] is HCT-116. Briefly: Ratio of cis-platin IC50 to compound IC50 for growth inhibition of human HCT116 cells. It counts as functional.

Take `C=C1CC[C@H]2[C@@](C)(CC[C@@H](OC(C)=O)[C@@]2(C)C(=O)OC)[C@@H]1C/C=C1/C(=O)OC[C@H]1OC(C)=O`: the IC50 in experiment [1] worked out at 2.02 µM; in experiment [2] it was 6.4 µM.
As to `C=C1CC[C@H]2[C@@](C)(CC[C@@H](OC(C)=O)[C@@]2(C)C(=O)OCc2ccccc2)[C@@H]1C/C=C1/C(=O)OC[C@H]1OC(=O)c1ccccc1`, the IC50 in experiment [1] came to 1.18 µM; in experiment [2], 8.37 µM. Besides, in experiment [3], the “Ratio IC50” value amounted to 11.
Turning to `C=C1CC[C@H]2[C@@](C)(CC[C@@H](O)[C@@]2(C)C(=O)O)[C@@H]1C/C=C1/C(=O)OC[C@H]1OC(=O)/C=C/c1ccc(OC)cc1`, the IC50 in experiment [1] amounted to 1.92 µM; in experiment [2] it was 8.86 µM.
On the same counts, the results for `C=C1CC[C@H]2[C@@](C)(CC[C@@H](OC(C)=O)[C@@]2(C)C(=O)OCc2ccccc2)[C@@H]1C/C=C1/C(=O)OC[C@H]1OC(=O)/C=C/c1ccc(OC)cc1` are 2.83 µM and 6.13 µM.
On to `C=C1CC[C@H]2[C@@](C)(CC[C@@H](OC(C)=O)[C@@]2(C)C(=O)O)[C@@H]1C/C=C1/C(=O)OC[C@H]1OC(C)=O`, for which the IC50 in experiment [1] was 2.19 µM; in experiment [2], above 4.1 µM.
With `C=C1CC[C@@H]2[C@](C)(CO)[C@H](O)CC[C@@]2(C)[C@@H]1C/C=C1/C(=O)OC[C@H]1O` [ANDROGRAPHOLIDE], the IC50 was 23.9 µM in experiment [1] and above 66 µM in experiment [2].
For `C=C1CC[C@H]2[C@@](C)(CC[C@@H](OC(C)=O)[C@@]2(C)C(=O)OCc2ccccc2)[C@@H]1C/C=C1/C(=O)OC[C@H]1OC(C)=O` the same measures were 1.07 µM and 6.28 µM.
Consider `C=C1CC[C@H]2[C@@](C)(CC[C@@H](OC(C)=O)[C@@]2(C)C(=O)O)[C@@H]1C/C=C1/C(=O)OC[C@H]1OC(=O)c1ccccc1`, for which the IC50 amounted to 17.8 µM in experiment [1] and 38.2 µM in experiment [2].
For `C=C1CC[C@H]2[C@@](C)(CC[C@@H](OC(C)=O)[C@@]2(C)C(=O)OC)[C@@H]1C/C=C1/C(=O)OC[C@H]1OC(=O)/C=C/c1ccc(OC)cc1` the same measures were 2.78 µM and 14.5 µM.
On the same counts, the results for `C=C1CC[C@H]2[C@@](C)(CC[C@@H](O)[C@@]2(C)C(=O)O)[C@@H]1C/C=C1/C(=O)OC[C@H]1OC(C)=O` are 25.2 µM and 33.3 µM.
On the same counts, the results for `C=C1CC[C@H]2[C@@](C)(CC[C@@H](OC(C)=O)[C@@]2(C)C(=O)O)[C@@H]1C/C=C1/C(=O)OC[C@H]1OC(=O)/C=C/c1ccc(OC)cc1` are 9.73 µM and 33.9 µM.
For the molecule `C=C1CC[C@H]2[C@@](C)(CC[C@@H](OC(C)=O)[C@@]2(C)C(=O)OC)[C@@H]1C/C=C1/C(=O)OC[C@H]1OC(=O)c1ccccc1`, the IC50 in experiment [1] came to 3.01 µM; in experiment [2] it was 10.6 µM.
As for `C=C1CC[C@H]2[C@@](C)(CC[C@@H](O)[C@@]2(C)C(=O)O)[C@@H]1C/C=C1/C(=O)OC[C@H]1OC(=O)c1ccccc1`, the half-maximal inhibitory concentration (IC50) in experiment [1] is 13.8 µM; in experiment [2], above 40.2 µM.
